Earlier results in patent US20060058387A1, “Composition and method for treating skin conditions” (priority 2004, published 2006).

Experiments:
interstitial cystitis = settings: bladder instillations of a 50% aqueous solution
[1] = children, dosage intakes of 200-800 mg/kg

In the case of Sulphinyl-bis-methane [DMSO], the “effect on symptoms of interstitial cystitis” value (interstitial cystitis) is given as “appear to alleviate symptoms”.

For `CC1=C(/C=C/C(C)=C/C=C/C(C)=C/C(=O)O)C(C)(C)CCC1` [tretinoin, all-trans retinoic acid], the “binding to plasma proteins” value (in vivo) is given as “highly bound”, the terminal elimination half-life (in vivo) is given as 30 to 120 min and the oral bioavailability (oral) is given as “about 50%”. The “time to peak plasma concentrations” value (oral administration) was 1 to 2 h.

For `C[N+](C)(C)CC(O)CC(=O)[O-]` (stereo not drawn) [carnitin, γ-Trimethyl-β-hydroxybutyrobetain], the side effects [1] is given as “No side effects were observed”.
